# Patent US5451522A, “Genes encoding and method of expressing an enzyme: phthalyl amidase” (priority 1994, dated 1995)
# “Also recorded” adds a separate entry of the source. Read-outs that look alike come from different tables or passages of the source.
# Experiments:
# phthalyl amidase [1] = molecular target: T1, phthalyl amidase (Xanthobacter agilis, UniProt P0C2Y0); experiment: Substrate specificity: chemical structure requirements for enzyme activity; type: biochemical; details: for Relative Activity: 2.5 μmol compound, 0.3 units enzyme; for suitability as substrate (in words): Tables 10 and 11
# T1 construct: 42-aa signal peptide removed
# Method: The activity of phthalyl amidase against 25 compounds was determined. The compounds were divided into beta-lactams (Table 9), phthalyl amides (Table 10), and aromatic ring substituted amides (Table 11). Each reaction mixture (1 ml total volume) contained 2.5 μmol of compound and 0.3 units of enzyme (based on the chromogenic substrate) of the preparative scale purified enzyme, in 50 mM phosphate buffer, pH 8.0. The reactions were conducted at 30° C. Samples of the reaction mixture were taken at various times, and methanol (equal volume) was added to stop the reaction. The samples were examined by HPLC to determine the extent of substrate hydrolysis. The amount of compound hydrolyzed was calculated from a standard curve of the test compound. All substrates were stable in buffer at 30° C. and pH 8.0 in the absence of enzyme for 24 hours.
# phthalyl amidase [2] = molecular target: T1, phthalyl amidase; experiment: Influence of effectors and organic solvents on enzyme activity; type: biochemical; details: for remaining activity at 1 % / remaining activity at 5 % / remaining activity at 10 %: 20 min, read-out: % Residual enzyme activity
# Method: A typical reaction mixture consisted of 1 ml total volume and contained 0.1 mM III, 0.1 μM phthalyl amidase in 50 mM potassium phosphate buffer (pH 5.5-9.0) at 32° C. for 20 minutes. The reactions were stopped by the addition of 1 ml methanol. After removal of precipitate by centrifugation, an aliquot of the supernatant fraction (typically 30 μ) was monitored for the beta-lactam nucleus and phthalic acid by HPLC using a Zorbax C8 column (0.46×15 cm; MacMod Analytical Inc., Chadds Ford, Pa.). The two reaction products were eluted by a mobile phase constructed as continuous mixed gradients from (a) 1% ACN (acetonitrile)/0.2% TFA (trifluoroacetic acid) and (b) 80% ACN/0.2% TFA as follows: 1) 0% (b), 3 min; 2) 0-50% (b), 0.5 min; 3) 50-100% (b), 3 min; 4) 100% (b), 2.5 min; 5) 100-0% (b), 0.1 min; and 6) 0% (b), 5 min.
# The effect of various agents on the enzymatic activity of phthalyl amidase was determined using standard conditions (see Example 5). All agents were tested at 1 mM final concentration unless otherwise indicated.
# Xanthobacter agilis = experiment: Induction of phthalyl amidase in Xanthobacter agilis cultures; type: cell-based; details: for Total units/mg protein: cell-free lysate, chromogenic substrate II
# Method: Three compounds at different concentrations were added to aerated cultures of the organism growing at 30° C. in Bac MI medium. The compounds tested were phthalate (PAA), phthalyl glycine (PAG), and PMBL. Cells of Xanthobacter agilis were grown with aeration for 24 hours. This vegetative culture was used to inoculate Bac MI medium (50 ml) containing different concentrations of the compounds to be tested. After 48 hours growth under standard conditions, cells were harvested by centrifugation and wet weight of the cells was determined. Crude cell extracts were prepared by lysozyme treatment of the cells as in Example 1. Suspensions were briefly sonicated to break up the viscous suspension. A cell-free supernatant was obtained by centrifugation of the suspension at 14,000 rpm for 15 minutes.
# Enzyme activity in cell-free lysates was determined by monitoring conversion of the chromogenic substrate 4-(2'-carboxy-N-benzoyl)amino-2-carboxy-nitrobenzene (II) to 2-nitro-5-amino benzoic acid and phthalic acid, a reaction catalyzed by phthalyl amidase as shown below: [drawing 4]
# The assay reaction mixture (1 ml) consisted of 0.3 μmol of the chromogenic substrate (II) and 0.001-0.5 μg of enzyme preparation in 50 mM potassium phosphate buffer, pH 8.0 (buffer A). The enzymatic reaction was conducted at 30° C. for 10 minutes and the appearance of product was monitored at 380 nm (or 430 nm). The amount of substrate hydrolyzed was calculated from a standard curve of the amine product.
# [3] = Table 11 aromatic ring substituted amides, XVII = 100.0, pH 8.0, 30° C.
# [4] = 1 mM unless otherwise indicated, iodoacetic acid 10 mM
# [5] = agent at 1 mM final concentration, read-out: % of Control Activity
# [6] = agent at 1 mM final concentration
# [7] = read-out: % of Control Activity
# [8] = Table 9 beta-lactams, III = 100, 50 mM phosphate pH 8.0, 30° C.
# T1 sequence (P0C2Y0 2-453): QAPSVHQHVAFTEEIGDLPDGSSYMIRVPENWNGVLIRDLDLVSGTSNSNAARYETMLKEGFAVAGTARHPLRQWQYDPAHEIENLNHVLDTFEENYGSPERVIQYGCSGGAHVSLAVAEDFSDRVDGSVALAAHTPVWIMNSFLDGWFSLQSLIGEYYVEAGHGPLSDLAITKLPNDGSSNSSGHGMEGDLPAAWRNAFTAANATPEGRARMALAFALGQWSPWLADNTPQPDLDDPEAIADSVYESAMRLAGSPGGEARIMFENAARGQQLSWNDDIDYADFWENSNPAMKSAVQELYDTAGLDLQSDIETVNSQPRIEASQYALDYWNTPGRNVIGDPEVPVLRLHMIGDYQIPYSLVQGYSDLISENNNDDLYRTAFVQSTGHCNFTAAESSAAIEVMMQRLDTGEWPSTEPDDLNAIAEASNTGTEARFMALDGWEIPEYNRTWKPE
smiles,measurement,setting,value
CCCCCCC(C(=O)O)n1cnc(NC(=O)c2ccccc2C(=O)O)c1 (stereo not drawn) [XVII],Relative Activity,phthalyl amidase [1]; [3],100.0
c1cnc2c(c1)ccc1cccnc12 [Phenanthroline],effect on enzyme activity (in words),phthalyl amidase [2]; [4],little or no effect
same,remaining activity at 1000 µM,phthalyl amidase [2]; [5],104%
NC(=O)C1=CN([C@@H]2O[C@H](COP(=O)(O)OP(=O)(O)OC[C@H]3O[C@@H](n4cnc5c(N)ncnc54)[C@H](O)[C@@H]3O)[C@@H](O)[C@H]2O)C=CC1 [NADH],remaining activity at 1000 µM,phthalyl amidase [2]; [5],96%
CCCCCCC(C(=O)O)n1cnc(NC(=O)c2ccccc2C(=O)O)c1 (stereo not drawn) [XIII],suitability as substrate (in words),phthalyl amidase [1],most active compound found
"C[S+](C)[O-] [DMSO, dimethyl sulfoxide]",remaining activity at 1 %,phthalyl amidase [2]; solvent 1.0%,101%
same,remaining activity at 5 %,phthalyl amidase [2]; solvent 5.0%,80%
same,remaining activity at 10 %,phthalyl amidase [2]; solvent 10.0%,71%
CCO [Ethanol],remaining activity at 1 %,phthalyl amidase [2],99%
same,remaining activity at 5 %,phthalyl amidase [2],85%
same,remaining activity at 10 %,phthalyl amidase [2],45%
"O=C(O)c1cc[c]([Hg][OH])cc1 [p-HMB, parahydroxy mercuric benzoate]",effect on enzyme activity (in words),phthalyl amidase [2]; [4],significantly reduced; also recorded: significantly inhibited
same,% of Control Activity,phthalyl amidase [2]; [6],65%
CCCCCCC(C(=O)O)n1cnc(NC(=O)c2ccc(C(=O)O)cc2)c1 (stereo not drawn) [XXIII],Relative Activity,phthalyl amidase [1]; [3],0
same,suitability as substrate (in words),phthalyl amidase [1],completely eliminates hydrolytic activity
OCCS [Mercaptoethanol],remaining activity at 1000 µM,phthalyl amidase [2]; [5],105%
O=C(O)CI [Iodoacetate],effect on enzyme activity (in words),phthalyl amidase [2],significantly reduced; also recorded: significantly inhibited
same,remaining activity at 1000 µM,phthalyl amidase [2]; [7],91%
same,remaining activity at 10000 µM,phthalyl amidase [2]; [7],46%
[Cl-].[Cl-].[Zn+2] [ZnCl2],% of Control Activity,phthalyl amidase [2]; [6],100%
"O=C(O)CNC(=O)c1ccccc1C(=O)O [PAG, phthalyl glycine]",effect on wet weight cell mass (in words),Xanthobacter agilis; Table 1 summary,increased
same,Units/g cells,Xanthobacter agilis; inducer addition 1 mg/ml,1.04 Units/g cells
same,Total units/mg protein,Xanthobacter agilis; inducer addition 1 mg/ml,0.35 µmol/min/mg
same,Units/g cells,Xanthobacter agilis; inducer addition 5 mg/ml,9.4 Units/g cells
same,Cell weight,"Xanthobacter agilis; inducer addition 5 mg/ml, 48 hours growth in Bac MI medium",0.5 g/50 ml
same,Total units/mg protein,Xanthobacter agilis; inducer addition 5 mg/ml,4.4 µmol/min/mg
"NC(=O)c1ccc[n+]([C@@H]2O[C@H](COP(=O)([O-])OP(=O)(O)OC[C@H]3O[C@@H](n4cnc5c(N)ncnc54)[C@H](OP(=O)(O)O)[C@@H]3O)[C@@H](O)[C@H]2O)c1 [NADP, nicotinamide adenine dinucleotide phosphate]",remaining activity at 1000 µM,phthalyl amidase [2]; [5],99%
[Cl][Mn][Cl] [MnCl2],% of Control Activity,phthalyl amidase [2]; [6],84%
CC(C)NC(=O)c1ccccc1C(=O)O [XII],Relative Activity,"phthalyl amidase [1]; Table 10 phthalyl amides, III = 100.0, 50 mM phosphate pH 8.0, 30° C.",9.7
"Cc1ncc(COP(=O)(O)O)c(C=O)c1O [PLP, pyridoxyl5-phosphate]",remaining activity at 1000 µM,phthalyl amidase [2]; [5],106%
CO [Methanol],remaining activity at 1 %,phthalyl amidase [2]; solvent 1.0%,100%
same,remaining activity at 5 %,phthalyl amidase [2]; solvent 5.0%,90%
same,remaining activity at 10 %,phthalyl amidase [2]; solvent 10.0%,69%
O=C(O)CN1C(=O)C(NC(=O)Cc2ccccc2)C1CCc1ccco1 (stereo not drawn) [V],Relative Activity,phthalyl amidase [1]; [8],0
"O=C(O)c1cc(SSc2ccc([N+](=O)[O-])c(C(=O)O)c2)ccc1[N+](=O)[O-] [DTNB, dithionitrobenzoate]",remaining activity at 1000 µM,phthalyl amidase [2]; [5],98%
"Nc1nc2c(c(=O)[nH]1)N[C@H](CNc1ccc(C(=O)N[C@@H](CCC(=O)O)C(=O)O)cc1)CN2 [THF, tetrahydrofolate]",remaining activity at 1000 µM,phthalyl amidase [2]; [5],100%
NC(=O)C1=CN([C@@H]2O[C@H](COP(=O)(O)OP(=O)(O)OC[C@H]3O[C@@H](n4cnc5c(N)ncnc54)[C@H](OP(=O)(O)O)[C@@H]3O)[C@@H](O)[C@H]2O)C=CC1 [NADPH],remaining activity at 1000 µM,phthalyl amidase [2]; [5],99%
CCCCCCC(C(=O)O)n1cnc(NC(=O)c2ccccc2O)c1 (stereo not drawn) [XXV],Relative Activity,phthalyl amidase [1]; [3],0
O=C(O)CN1C(=O)C(NC(=O)COc2ccccc2)C1CCc1ccco1 (stereo not drawn) [IV],Relative Activity,phthalyl amidase [1]; [8],0
